Reference: US4988681A, “Phosphinic acid derivatives” (Banyu Pharmaceutical Co., Ltd., priority 1988, dated 1991)
Where two headings read alike, the source gives them in different places. Blank lines part the entries; values can stand above or below the compound they belong to.

Tests used:
[1] = biological target: T1, porcine kidney dehydropeptidase I (Sus scrofa, UniProt P22412); assay: Inhibitory activity on porcine kidney dehydropeptidase I (DHP-I); format: biochemical
T1 construct: Frozen porcine kidney cortex was homogenized; from tissue; host or cells: porcine kidney cortex
T1 sequence (P22412 17-409): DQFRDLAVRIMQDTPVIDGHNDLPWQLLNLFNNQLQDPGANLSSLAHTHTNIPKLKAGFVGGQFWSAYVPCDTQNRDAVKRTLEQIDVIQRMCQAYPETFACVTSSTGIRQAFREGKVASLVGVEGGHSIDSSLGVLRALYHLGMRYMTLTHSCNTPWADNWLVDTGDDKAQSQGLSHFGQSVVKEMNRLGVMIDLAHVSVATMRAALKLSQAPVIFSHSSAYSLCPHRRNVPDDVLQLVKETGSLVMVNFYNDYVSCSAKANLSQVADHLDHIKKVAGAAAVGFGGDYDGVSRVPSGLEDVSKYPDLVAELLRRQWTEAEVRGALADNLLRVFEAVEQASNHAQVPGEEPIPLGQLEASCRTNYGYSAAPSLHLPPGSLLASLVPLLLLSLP
Method: (1) Inhibitory activity on porcine kidney dehydropeptidase I
(i) Purification of porcine dehydropeptidase I
Frozen porcine kidney cortex was homogenized. Butanol (1/4 volume) pre-cooled in a dry ice-acetone bath was added to the homogenate, and the mixture was stirred at 4° C. for 43 hours. The mixture was then dialyzed for one day and centrifuged at 3,000 g for 30 minutes. To the resulting supernatant was added ammonium sulfate. A precipitate at the salt concentration range between 50 and 75% was collected to give a crude enzyme preparation which was re-dissolved in a 50 mM MOPS buffer containing 0.5 M NaCl. The solution was charged on a cilastatin affinity column. Elution with a 50 mM MOPS buffer containing 0.5 M NaCN gave a purified enzyme preparation.
(ii) Measurement of inhibitory activity
The resulting enzyme preparation (3 mU) and an inhibitor were pre-incubatedat 37° C. for 3 hours in 2.7 ml of a 50 mM MOPS buffer (pH 7.4), and then 2.475 ml of the mixture was transferred into a cuvette. As a substrate, 25 microliters of a 5 mM glycyldehydrophenylalanine solution in a 50 mM MOPS buffer (pH 7.4) was added to start an enzymic reaction. The reaction was carried out at 37° C. in a spectrophotometer fitted with a constant-emperature device, and a decrease of the absorbance at 275 nm during a period of 5 minutes was measured. […] An IC50 value was calculated from the percent inhibition data.
One unit (U) is defined as the amount of the enzyme which hydrolyzes 1 micromole of the substrate (glycyldehydrophenylalanine) per minute at a substrate concentration of 0.05 mM at 37° C. in a 50 mM MOPS buffer (pH 7.4).

[2] = Pharmacokinetic evaluation: plasma concentration in rats; format: in vivo, Male SD rats; conditions: plasma, rat; for AUC: trapezoidal rule; for concentration at 0.5 h: 1/2 h; for concentration at 0.25 h: 1/4 h; for concentration at 5 min: 1/12 h
Method: (4) Pharmacokinetic evaluations
Male SD rats ([…]) were divided into groups each consisting of three animals. […] Furthermore, cilastatin was intravenously administered to a 14th group as a control group.
Plasma samples were taken periodically from the carotid artery through a cannula inserted into it at the points of 1/12, 1/4, 1/2, 1, 2, 4, 6, 8 and 24 hours after the administration.
The area under the curve (AUC) of the plasma concentration was determined according to the trapezoidal rule.

[3] = substrate glycyldehydrophenylalanine, pH 7.4, 37° C., 3 h pre-incubation, read-out: Concentration producing 50% inhibition (IC50)
[4] = iv 10 mg/kg (cilastatin dose not given)
[5] = iv 10 mg/kg (cilastatin dose not given), N.D.: below the detection limit
[6] = iv 10 mg/kg, N.D.: below the detection limit

IC50 [1, 3]: 21 nM
SMILES: CC(C)CP(=O)(O)C/C(=C\CCCSc1ccccc1)C(=O)O [compound 18, (Z)-2-(hydroxyisobutylphosphinoyl)methyl-6-phenylthio-2-hexenoic acid]

IC50 [1, 3]: 25 nM
SMILES: CC(C)CP(=O)(O)C/C(=C\CCCSc1c[nH]nn1)C(=O)O [compound 19, (Z)-2-(hydroxyisobutylphosphinoyl)methyl-6-(1,2,3-triazol-4-yl)thio-2-hexenoic acid]

IC50 [1, 3]: 22 nM
SMILES: CC(C)CP(=O)(O)C/C(=C\CCCCCSCC(=O)O)C(=O)O [compound 20, (Z)-8-carboxymethylthio-2-(hydroxyisobutylphosphinoyl)methyl-2-octenoic acid]

IC50 [1, 3]: 31 nM
SMILES: COC(=O)CSCCCCC/C=C(\CP(=O)(O)CC(C)C)C(=O)O [compound 21, (Z)-2-(hydroxyisobutylphosphinoyl)methyl-8-methoxycarbonylmethylthio-2-octenoic acid]

IC50 [1, 3]: 23 nM
SMILES: CC(C)CP(=O)(O)C/C(=C\CCCSc1ncccc1O)C(=O)O [compound 22, (Z)-6-(3-hydroxy-2-pyridyl)thio-2-(hydroxyisobutylphosphinoyl)methyl-2-hexenoic acid]

IC50 [1, 3]: 48 nM
SMILES: CC(C)CP(=O)(O)C/C(=C\CCCSc1nccn1C)C(=O)O [compound 24, (Z)-2-(hydroxyisobutylphosphinoyl)methyl-6-(1-methylimidazol-2-yl)thio-2-hexenoic acid]

IC50 [1, 3]: 19 nM
SMILES: CC(C)CP(=O)(O)C/C(=C\CCCCCSc1ncccc1O)C(=O)O [compound 25, (Z)-8-(3-hydroxy-2-pyridyl)thio-2-(hydroxyisobutylphosphinoyl)methyl-2-octenoic acid]

IC50 [1, 3]: 28 nM
SMILES: CCCCP(=O)(O)CC(CC1CCCCC1)C(=O)O (stereo not drawn) [compound 26, 2-(butylhydroxyphosphinoyl)methyl-3-cyclohexylpropionic acid]

IC50 [1, 3]: 60 nM
SMILES: CC(C)CP(=O)(O)C/C(=C\c1ccccc1)C(=O)O [compound 29, (Z)-2-(hydroxyisobutylphosphinoyl)methyl-3-phenylpropenoic acid]

IC50 [1, 3]: 64 nM
SMILES: CC(C)CP(=O)(O)C/C(=C\CCCSCCO)C(=O)O [compound 31, (Z)-6-(2-hydroxyethyl)thio-2-(hydroxyisobutylphosphinoyl)methyl-2-hexenoic acid]

The remaining lines, values behind:

SMILES: CCCCP(=O)(O)C/C(=C\C1CCCCC1)C(=O)O [Compound No. 1, (Z)-2-(butylhydroxyphosphinoyl)methyl-3-cyclohexylpropenoic acid]
IC50 [1, 3]: 38 nM

SMILES: CC1(C)CC1P(=O)(O)C/C(=C\C1CCCCC1)C(=O)O (stereo not drawn) [Compound No. 5, (Z)-3-cyclohexyl-2-(2,2-dimethylcyclopropylhydroxyphosphinoyl)methylpropenoic acid]
IC50 [1, 3]: 8.2 nM | AUC [2, 4]: 88200 ng·h/mL | AUC ([2]; po 10 mg/kg): 22500 ng·h/mL | concentration at 0.5 h [2, 4]: 36200 ng/mL | concentration at 0.25 h [2, 4]: 49400 ng/mL | concentration at 5 min [2, 4]: 51900 ng/mL | concentration at 1 h [2, 5]: 24400 ng/mL | concentration at 2 h ([2]; iv 10 mg/kg): 11900 ng/mL | concentration at 4 h ([2]; iv 10 mg/kg): 4700 ng/mL | concentration at 6 h [2, 6]: 1700 ng/mL | concentration at 8 h ([2]; iv 10 mg/kg): 900 ng/mL | concentration at 24 h ([2]; iv 10 mg/kg, 24 h, N.D.: below the detection limit): 100 ng/mL | concentration at 0.5 h ([2]; po 10 mg/kg): 6400 ng/mL | concentration at 0.25 h ([2]; po 10 mg/kg): 4700 ng/mL | concentration at 5 min ([2]; po 10 mg/kg): 2500 ng/mL | concentration at 1 h ([2]; po 10 mg/kg): 5300 ng/mL | concentration at 2 h ([2]; po 10 mg/kg): 3400 ng/mL | concentration at 4 h ([2]; po 10 mg/kg): 2400 ng/mL | concentration at 6 h ([2]; po 10 mg/kg): 1100 ng/mL | concentration at 8 h ([2]; po 10 mg/kg, N.D.: below the detection limit): 300 ng/mL

SMILES: CC(C)CP(=O)(O)C/C(=C\C1CC1)C(=O)O [Compound No. 10, (Z)-3-cyclopropyl-2-(hydroxyisobutylphosphinoyl)methylpropenoic acid]
IC50 [1, 3]: 14 nM | AUC [2, 4]: 40600 ng·h/mL | AUC ([2]; po 10 mg/kg): 3900 ng·h/mL | concentration at 0.5 h [2, 4]: 21700 ng/mL | concentration at 0.25 h [2, 4]: 26500 ng/mL | concentration at 5 min [2, 4]: 40800 ng/mL | concentration at 1 h [2, 5]: 12800 ng/mL | concentration at 2 h ([2]; iv 10 mg/kg): 5200 ng/mL | concentration at 4 h ([2]; iv 10 mg/kg): 1100 ng/mL | concentration at 6 h [2, 6]: 200 ng/mL | concentration at 8 h ([2]; iv 10 mg/kg): 200 ng/mL | concentration at 0.5 h ([2]; po 10 mg/kg): 1400 ng/mL | concentration at 0.25 h ([2]; po 10 mg/kg): 1100 ng/mL | concentration at 5 min ([2]; po 10 mg/kg): 500 ng/mL | concentration at 1 h ([2]; po 10 mg/kg): 1200 ng/mL | concentration at 2 h ([2]; po 10 mg/kg): 800 ng/mL | concentration at 4 h ([2]; po 10 mg/kg): 300 ng/mL | concentration at 6 h ([2]; po 10 mg/kg): 200 ng/mL

SMILES: CC(C)CP(=O)(O)C/C(=C\CCCC(=O)O)C(=O)O [Compound No. 14, (Z)-2-(hydroxyisobutylphosphinoyl)methyl-2-heptenedioic acid]
IC50 [1, 3]: 11 nM | AUC [2, 4]: 9300 ng·h/mL | concentration at 0.5 h [2, 4]: 4600 ng/mL | concentration at 0.25 h [2, 4]: 11300 ng/mL | concentration at 5 min [2, 4]: 28000 ng/mL | concentration at 1 h [2, 5]: 1400 ng/mL | concentration at 2 h ([2]; iv 10 mg/kg): 300 ng/mL | concentration at 4 h ([2]; iv 10 mg/kg): 100 ng/mL

SMILES: CC(C)P(=O)(O)C/C(=C\C1CCCCC1)C(=O)O [compound 3, (Z)-3-cyclohexyl-2-(hydroxyisopropylphosphinoyl)methylpropenoic acid]
IC50 [1, 3]: 42 nM

SMILES: CCCCCCCCCCP(=O)(O)C/C(=C\C1CCCCC1)C(=O)O [compound 4, (Z)-3-cyclohexyl-2-(decylhydroxyphosphinoyl)methylpropenoic acid]
IC50 [1, 3]: 68 nM

SMILES: CCCCC/C=C(\CP(=O)(O)CC(C)C)C(=O)O [compound 6, (Z)-2-(hydroxyisobutylphosphinoyl)methyl-2-octenoic acid]
IC50 [1, 3]: 46 nM

SMILES: CCCCCCCCC/C=C(\CP(=O)(O)CC(C)C)C(=O)O [compound 7, (Z)-2-(hydroxyisobutylphosphinoyl)methyl-2-dodecenoic acid]
IC50 [1, 3]: 27 nM

SMILES: CC(C)/C=C(\CP(=O)(O)CC(C)C)C(=O)O [compound 8, (Z)-2-(hydroxyisobutylphosphinoyl)methyl-4-methyl-2-pentenoic acid]
IC50 [1, 3]: 16 nM

SMILES: CC(C)C/C=C(\CP(=O)(O)CC(C)C)C(=O)O [compound 9, (Z)-2-(hydroxyisobutylphosphinoyl)methyl-5-methyl-2-hexenoic acid]
IC50 [1, 3]: 15 nM

SMILES: CC(C)CP(=O)(O)C/C(=C\CCc1ccccc1)C(=O)O [compound 11, (Z)-2-(hydroxyisobutylphosphinoyl)methyl-5-phenyl-2-pentenoic acid]
IC50 [1, 3]: 57 nM

SMILES: CC(C)CP(=O)(O)C/C(=C\CCCCl)C(=O)O [compound 12, (Z)-6-chloro-2-(hydroxyisobutylphosphinoyl)methyl-2-hexenoic acid]
IC50 [1, 3]: 51 nM

SMILES: CC(C)CP(=O)(O)C/C(=C\CCCCCCl)C(=O)O [compound 13, (Z)-8-chloro-2-(hydroxyisobutylphosphinoyl)methyl-2-octenoic acid]
IC50 [1, 3]: 44 nM

SMILES: CC1(C)CC1P(=O)(O)C/C(=C\C1CC1)C(=O)O (stereo not drawn) [compound 15, (Z)-3-cyclopropyl-2-(2,2-dimethylcyclopropylhydroxyphosphinoyl)methylpropenoic acid]
IC50 [1, 3]: 6.3 nM

SMILES: O=C(O)/C(=C/C1CC1)CP(=O)(O)CC1CCCCC1 [compound 16, (Z)-2-(cyclohexylmethylhydroxyphosphinoyl)methyl-3-cyclopropylpropenoic acid]
IC50 [1, 3]: 41 nM

SMILES: C/C=C(\CP(=O)(O)CC(C)C)C(=O)O [compound 30, (Z)-2-(hydroxyisobutylphosphinoyl)methyl-2-butenoic acid]
IC50 [1]: 75 nM
